Each block holds one molecule with its values, some of them ahead of it. Where a SMILES comes first, the peptide text is derived from it. Where no end group is shown, it is not given here. [ ]: non-standard residue; d: D form.
Key:
VEGF = target: T1, VEGF (Homo sapiens, UniProt P15692); experiment: Inhibition of VEGF activity (HUVEC proliferation assay); type: cell-based; settings: VEGF165, 72 hours
T1 construct: purchased R&D Systems
T1 sequence (P15692 27-191 isoform P15692-4): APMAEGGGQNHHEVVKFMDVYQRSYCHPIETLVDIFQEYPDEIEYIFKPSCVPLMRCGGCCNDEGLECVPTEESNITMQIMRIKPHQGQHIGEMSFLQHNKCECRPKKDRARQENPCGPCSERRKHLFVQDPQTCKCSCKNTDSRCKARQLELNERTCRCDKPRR
Method: HUVECs (Human Umbilical Vein Endothelial Cells, ATCC) were starved in M199 medium (Gibco) supplemented with 1% FBS, and then they were attached to a 96-well plate at 5000 cell/well. After 12 hours, the cells were treated with medium containing both various concentrations of L-Aptide1VEGF and D-Aptide1VEGF, and VEGF165 (R&D Systems). After 72 hours, the growth inhibition rate of HUVECs by the L-AptideVEGF and D-AptideVEGF was determined using EZ-cytox cell viability assay kit (Daeil Labservice, Korea).

VEGF121 = target: T2, VEGF121 (Homo sapiens, UniProt P15692); experiment: BIAcore X (SPR) affinity for VEGF; type: binding; settings: VEGF121 on CM5 chip; for kd: PBS pH 7.4; for kon: PBS pH 7.4, read-out: ka
T2 sequence (P15692 27-147 isoform P15692-9): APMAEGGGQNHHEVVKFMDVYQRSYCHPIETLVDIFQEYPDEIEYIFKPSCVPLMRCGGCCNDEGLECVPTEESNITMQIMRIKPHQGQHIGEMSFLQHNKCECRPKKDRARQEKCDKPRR
Method: To investigate whether the activity is maintained where Aptamer-Like Peptides specifically binding to VEGF (Vascular endothelial growth factor), i.e., L-Aptide1VEGF are converted into D- and Retro inverso (RI)-form, their affinity to a target was measured. Firstly, 3 peptides, L-Aptide1VEGF ([…], all L-amino acids, SEQ ID NO:23), D-Aptide1VEGF ([…], all D-amino acids, SEQ ID NO:23) and RI-Aptide1VEGF ([…], all D-amino acids), were synthesized by Anigen Inc. (Korea). Their affinity for a target was determined using BIAcore X (Biacore AB, Uppsala, Sweden). VEGF121 of 3000 RU was immobilized on CM5 chip (Biacore). A PBS (pH 7.4) was used as a running buffer, a flow rate was 30 μl/min, and the affinity was determined with BIAevaluation software (Biacore AB, Uppsala, Sweden) after measuring kinetics of various concentrations.

fibronectin EDB [1] = target: T3, fibronectin EDB (Homo sapiens, UniProt P02751); experiment: BIAcore X (SPR) affinity for fibronectin EDB; type: binding; settings: biotin-EDB on SA chip; for Kd / koff (dissociation rate constant): PBS pH 7.4; for kon: PBS pH 7.4, read-out: ka
T3 construct: Biotin-EDB of 2000 RU was immobilized on streptavidin SA chip
Method: (§1) To investigate whether the activity is maintained where Aptamer-Like Peptides specifically binding to fibronectin EDB, i.e., L-Aptide1EDB are converted into D- and Retro inverso (RI)-form, their affinity to a target was measured. Firstly, 3 peptides, L-Aptide1EDB ([…], all L-amino acids, SEQ ID NO:21), D-Aptide1EDB ([…], all D-amino acids, SEQ ID NO:21) and RI-Aptide1EDB ([…], all D-amino acids), were synthesized by Anigen Inc. (Korea). Their affinity for a target was determined using BIAcore X (Biacore AB, Uppsala, Sweden). Biotin-EDB of 2000 RU was immobilized on streptavidin SA chip (Biacore). A PBS (pH 7.4) was used as a running buffer, a flow rate was 30 μl/min, and the affinity was determined with BIAevaluation software (Biacore AB, Uppsala, Sweden) after measuring kinetics of various concentrations.

α-chymotrypsin = target: T4, α-chymotrypsin (Bos taurus, UniProt P00766); experiment: Degradation of Aptides by protease, SDS-PAGE; type: in vitro ADME; settings: 10 unit α-chymotrypsin, 100 μg peptide, FIG. 3
T4 construct: purchased Sigma
Method: (§2) Degradation levels of the L-Aptide1EDB and D-Aptide1EDB were measured using proteases, α-chymotrypsin and trypsin (Sigma). The proteases of 10 unit were added to 100 μg peptides, followed by the reaction for 30, 60, 120 and 720 min, and the reaction was blocked by adding SDS sample buffer (Invitrogen). Subsequently, results for the peptide degradation were obtained from SDS-PAGE.

trypsin = experiment: Degradation of Aptides by protease, SDS-PAGE; type: in vitro ADME; settings: 10 unit trypsin, 100 μg peptide, FIG. 3
Method: as §2

fibronectin EDB [2] = target: T5, fibronectin EDB (UniProt P02751 1266-1356, limits assumed, biotin (site not stated)); experiment: SPR, BIAcore X; biotin-EDB on SA chip, peptide as analyte
T5 construct: domain: EDB; Biotin-EDB, 2000 RU, immobilised on a streptavidin SA chip; also called Biotin-EDB; fibronectin extra domain B (ED-B)
Method: as §1, with “(Biacore).” for “(Biacore). A PBS (pH 7.4) was used as a running buffer, a flow rate was 30 μl/min, and the affinity was determined with BIAevaluation software (Biacore AB, Uppsala, Sweden) after measuring kinetics of various concentrations.”

T5 sequence (P02751 1266-1356 limits assumed): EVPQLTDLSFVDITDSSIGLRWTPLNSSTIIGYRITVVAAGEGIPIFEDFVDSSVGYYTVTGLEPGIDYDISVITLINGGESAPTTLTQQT

Molecule: C[C@H](NC(=O)[C@@H](N)Cc1c[nH]cn1)C(=O)N[C@@H](CC(N)=O)C(=O)N[C@@H](Cc1ccccc1)C(=O)N[C@@H](Cc1ccccc1)C(=O)N[C@@H](CCC(N)=O)C(=O)NCC(=O)N[C@@H](CO)C(=O)N[C@@H](Cc1c[nH]c2ccccc12)C(=O)N[C@H](C(=O)N[C@@H](Cc1c[nH]c2ccccc12)C(=O)N[C@@H](CCC(=O)O)C(=O)N[C@@H](CC(N)=O)C(=O)NCC(=O)N[C@@H](CCCCN)C(=O)N[C@@H](Cc1c[nH]c2ccccc12)C(=O)N[C@H](C(=O)N[C@@H](Cc1c[nH]c2ccccc12)C(=O)N[C@@H](CCCCN)C(=O)NCC(=O)N[C@@H](Cc1c[nH]c2ccccc12)C(=O)N[C@@H](CCCCN)C(=O)N[C@@H](Cc1ccc(O)cc1)C(=O)N[C@@H](CC(N)=O)C(=O)N[C@@H](CCC(N)=O)C(=O)N[C@@H](CO)C(=O)O)[C@@H](C)O)[C@@H](C)O [L-Aptide1VEGF] (H-HANFFQGSWTWENGKWTWKGWKYNQS-OH; N-terminus and C-terminus assumed)
inhibition of VEGF activity (VEGF; at 20 μM): completely inhibited VEGF activity
kd (VEGF121): 0.01 s⁻¹
kon (VEGF121): 350000 M⁻¹ s⁻¹

Molecule: C[C@H](O)[C@@H](NC(=O)[C@@H](Cc1c[nH]c2ccccc12)NC(=O)[C@@H](CCCCN)NC(=O)CNC(=O)[C@@H](CC(N)=O)NC(=O)[C@@H](CCC(=O)O)NC(=O)[C@@H](Cc1c[nH]c2ccccc12)NC(=O)[C@H](NC(=O)[C@@H](Cc1c[nH]c2ccccc12)NC(=O)[C@@H](CO)NC(=O)CNC(=O)[C@@H](CCC(N)=O)NC(=O)[C@@H](Cc1ccccc1)NC(=O)[C@@H](Cc1ccccc1)NC(=O)[C@@H](CC(N)=O)NC(=O)[C@@H](C)NC(=O)[C@H](N)Cc1c[nH]cn1)[C@H](C)O)C(=O)N[C@H](Cc1c[nH]c2ccccc12)C(=O)N[C@H](CCCCN)C(=O)NCC(=O)N[C@H](Cc1c[nH]c2ccccc12)C(=O)N[C@H](CCCCN)C(=O)N[C@H](Cc1ccc(O)cc1)C(=O)N[C@H](CC(N)=O)C(=O)N[C@H](CCC(N)=O)C(=O)N[C@H](CO)C(=O)O [D-Aptide1VEGF] (H-[dH][dA][dN][dF][dF][dQ]G[dS][dW][dT][dW][dE][dN]G[dK][dW][dT][dW][dK]G[dW][dK][dY][dN][dQ][dS]-OH; N-terminus and C-terminus assumed)
inhibition of VEGF activity (VEGF; at 10 μM, D-form versus L-form): more inhibited VEGF activity than L-form
inhibition of VEGF activity (VEGF; at 20 μM): completely inhibited VEGF activity
kd (VEGF121): 0.0066 s⁻¹
Kd (VEGF121; PBS pH 7.4, read-out: Kd): 50 nM
kon (VEGF121): 130000 M⁻¹ s⁻¹

Molecule: CC[C@H](C)[C@H](NC(=O)CNC(=O)[C@H](CCCCN)NC(=O)[C@H](Cc1c[nH]c2ccccc12)NC(=O)[C@@H](NC(=O)[C@H](Cc1c[nH]c2ccccc12)NC(=O)[C@H](CCCCN)NC(=O)CNC(=O)[C@H](CC(N)=O)NC(=O)[C@H](CCC(=O)O)NC(=O)[C@H](Cc1c[nH]c2ccccc12)NC(=O)[C@@H](NC(=O)[C@H](Cc1c[nH]c2ccccc12)NC(=O)[C@H](CO)NC(=O)CNC(=O)[C@@H](NC(=O)[C@H](C)NC(=O)[C@H](CO)NC(=O)[C@H](CO)NC(=O)[C@H](CS)NC(=O)[C@@H](N)Cc1c[nH]cn1)C(C)C)[C@@H](C)O)[C@@H](C)O)C(=O)N[C@H](C(=O)N[C@@H](CCCNC(=N)N)C(=O)N[C@@H](CC(C)C)C(=O)N[C@@H](CCC(=O)O)C(=O)N[C@@H](CCC(N)=O)C(=O)O)[C@@H](C)CC [L-Aptide1EDB] (H-HCSSAVGSWTWENGKWTWKGIIRLEQ-OH; N-terminus and C-terminus assumed)
Kd (fibronectin EDB [1]): 65 nM
koff (dissociation rate constant) (fibronectin EDB [1]): 0.00095 s⁻¹
kon (fibronectin EDB [1]): 10000 M⁻¹ s⁻¹
time to degradation by protease (α-chymotrypsin): ≤ 30 min
time to degradation by protease (trypsin): ≤ 30 min

Molecule: CC[C@@H](C)[C@@H](NC(=O)CNC(=O)[C@@H](CCCCN)NC(=O)[C@@H](Cc1c[nH]c2ccccc12)NC(=O)[C@H](NC(=O)[C@@H](Cc1c[nH]c2ccccc12)NC(=O)[C@@H](CCCCN)NC(=O)CNC(=O)[C@@H](CC(N)=O)NC(=O)[C@@H](CCC(=O)O)NC(=O)[C@@H](Cc1c[nH]c2ccccc12)NC(=O)[C@H](NC(=O)[C@@H](Cc1c[nH]c2ccccc12)NC(=O)[C@@H](CO)NC(=O)CNC(=O)[C@H](NC(=O)[C@@H](C)NC(=O)[C@@H](CO)NC(=O)[C@@H](CO)NC(=O)[C@@H](CS)NC(=O)[C@H](N)Cc1c[nH]cn1)C(C)C)[C@H](C)O)[C@H](C)O)C(=O)N[C@@H](C(=O)N[C@H](CCCNC(=N)N)C(=O)N[C@H](CC(C)C)C(=O)N[C@H](CCC(=O)O)C(=O)N[C@H](CCC(N)=O)C(=O)O)[C@H](C)CC [D-Aptide1EDB] (H-[dH][dC][dS][dS][dA][dV]G[dS][dW][dT][dW][dE][dN]G[dK][dW][dT][dW][dK]G[dI][dI][dR][dL][dE][dQ]-OH; N-terminus and C-terminus assumed)
Kd (fibronectin EDB [1]): 58 nM
koff (dissociation rate constant) (fibronectin EDB [1]): 0.0009 s⁻¹
kon (fibronectin EDB [1]): 15000 M⁻¹ s⁻¹
time to degradation by protease (α-chymotrypsin): > 360 min
time to degradation by protease (trypsin): > 360 min

koff (fibronectin EDB [2]): 0.0009 s⁻¹
Molecule: [dH][dC][dS][dS][dA][dV]G[dS][dW][dT][dW][dE][dN]G[dK][dW][dT][dW][dK]G[dI][dI][dR][dL][dE][dQ] (designed binder) [D-Aptide1EDB]

koff (fibronectin EDB [2]): 0.00095 s⁻¹
B1: L-Aptide1EDB (designed binder)
peptide: HCSSAVGSWTWENGKWTWKGIIRLEQ
notes: Synthetic 26-mer, all L-amino acids; also called Aptide1EDB (L-form)

koff (fibronectin EDB [2]): 0.0011 s⁻¹
Molecule: [dQ][dE][dL][dR][dI][dI]G[dK][dW][dT][dW][dK]G[dN][dE][dW][dT][dW][dS]G[dV][dA][dS][dS][dC][dH] (designed binder) [RI-Aptide1EDB]
